According to the NIST ThermoML archive (doi:10.1021/acs.jced.7b01040):

Key:
[1] = for vapor or sublimation pressure: Transpiration method; for Normal melting temperature: DTA; for Triple point temperature: DSC
[2] = Molar enthalpy of transition or fusion; conditions: DSC

Cc1c(Br)c(Br)c(C)c(Br)c1Br [1,2,4,5-tetrabromodimethylbenzene]
[1], Crystal
Conditions	vapor or sublimation pressure [kPa]
322.8 K	2.4e-06
327.7 K	4.2e-06
332.7 K	7.2e-06
337.5 K	1.25e-05
342.5 K	2.1e-05
347.5 K	3.6e-05
352.4 K	5.9e-05
357.5 K	0.0001
362.4 K	0.00016
367.4 K	0.00025

Crystal
Conditions	Molar enthalpy of transition or fusion [kcal/mol]	Normal melting temperature [°C]
[1]	–	254.2
[2]	5.71	–

BrCC(Br)COc1c(Br)cc(Br)cc1Br (centres undefined) [1,3,5-tribromo(2,3-dibromopropoxy)benzene]
[1], Liquid
Conditions	vapor or sublimation pressure [kPa]
322.9 K	1.9e-06
327.8 K	3.2e-06
332.7 K	5.5e-06
337.7 K	9.6e-06
342.7 K	1.7e-05
347.7 K	2.7e-05
352.7 K	4.3e-05
357.7 K	6.7e-05
362.7 K	0.00013
367.7 K	0.00016

Conditions	Molar enthalpy of transition or fusion, [2] [kcal/mol]	Triple point temperature, [1] [K]
Crystal 1	0.612	313.7
Crystal 2	4.09	307.9

CCc1c(Br)c(Br)c(Br)c(Br)c1Br [pentabromoethylbenzene]
[1], Crystal
Conditions	vapor or sublimation pressure [kPa]
322.7 K	3.7e-06
327.6 K	6.1e-06
332.6 K	1.04e-05
337.5 K	1.7e-05
342.4 K	3.2e-05
347.4 K	4.9e-05
352.3 K	8.3e-05
357.4 K	0.00013
362.3 K	0.00021
367.3 K	0.00032

Crystal
Conditions	Molar enthalpy of transition or fusion [kcal/mol]	Normal melting temperature [°C]
[1]	–	135.8
[2]	3.2	–

Cc1c(Br)c(Br)c(Br)c(Br)c1Br [pentabromomethylbenzene]
[1], Crystal
Conditions	vapor or sublimation pressure [kPa]
322.9 K	2.7e-07
327.8 K	5.1e-07
332.9 K	9.1e-07
337.6 K	1.62e-06
342.7 K	2.9e-06
347.6 K	5.5e-06
352.6 K	9e-06
357.6 K	1.5e-05
362.5 K	2.7e-05
367.6 K	4.2e-05

Crystal
Conditions	Molar enthalpy of transition or fusion [kcal/mol]	Normal melting temperature [°C]
[1]	–	286
[2]	7	–

Oc1c(Br)c(Br)c(Br)c(Br)c1Br [pentabromophenol]
[1], Crystal 2
Conditions	vapor or sublimation pressure [kPa]
322.9 K	1.9e-07
327.8 K	3.6e-07
332.8 K	6.7e-07
337.7 K	1.2e-06
342.6 K	2.3e-06
347.6 K	4.2e-06
352.6 K	7.8e-06
357.6 K	1.4e-05
362.6 K	2.7e-05
367.4 K	4.5e-05

Conditions	Molar enthalpy of transition or fusion, [2] [kcal/mol]	Triple point temperature, [1] [K]
Crystal 1	4.42	496.3
Crystal 2	2.82	416.2
